The values below come from article PMC7447621, “Chemoenzymatic synthesis of daptomycin analogs active against daptomycin-resistant strains” (Applied Microbiology and Biotechnology, 2020).

The format of series [1] is physicochemical. An excerpt:
These differences in activity could be due to differences between the structures of Dap and its analogs either in complex with Gram-positive membranes or in their unbound form. However, with no three-dimensional structure data for the analogs, only conjecture can be offered as to the cause. […] [2004]; Jung et al. [2004]), the benzene ring of Trp is thought to stick out away from the peptide core and lie roughly parallel to the main axis of the acyl tail. […] [2017]), which also suffered from a decrease in activity compared with its N1-normal-prenylated regioisomer. Conversely, the diene moieties attached at the C2 position are prone to conjugate addition reactions which would prevent the proper binding conformation or even enable degradation pathways. Therefore, to check their stability, all purified Dap analogs were reinjected on RP-HPLC after their structural and activity characterization (see Supporting Information Fig. S3). […] While future kinetic and engineering studies will likely answer these questions, the SAR identified in this study will inform future Dap development efforts using the […]-based diversification scheme.

The test system of the next series is S. aureus (ATCC 25923). Particulars: DapS strain; MIC90, broth microdilution, MHB + 50 mg L^−1 calcium, inoculum 1×10^5–5×10^5 CFU/mL, 35 °C, 22 h, A600, triplicate; converted from μM. For orientation: Dilution methods test growth across graded concentrations, often in twofold steps.
The test system of series [2] is S. aureus (MRSA, ATCC 700787). To be noted: DapS, MIC90, broth microdilution, MHB + 50 mg L^−1 calcium, 35 °C, 22 h, A600, triplicate.
In series [3] the test system is S. epidermidis (ATCC 12228). Particulars: DapS; MIC90, broth microdilution, MHB + 50 mg L^−1 calcium, 35 °C, 22 h, A600, triplicate.
Series [4] deals with E. faecalis (hVRE, ATCC 700802). To be noted: DapS, VRE; MIC90, broth microdilution, MHB + 50 mg L^−1 calcium, 35 °C, 22 h, A600, triplicate.
For the next series, the system named is S. aureus (hVISA, SR220). To be noted: DapS, VISA, BEI NR-50512; MIC90, broth microdilution, MHB + 50 mg L^−1 calcium, 35 °C, 22 h, A600, triplicate.
The test system of series [5] is S. aureus (hVISA, SR3777). Particulars: DapS, BEI NR-50509; MIC90, broth microdilution, MHB + 50 mg L^−1 calcium, 35 °C, 22 h, A600, triplicate.
The subject of series [6] is S. aureus (hVISA, SR4035). To be noted: DapS, BEI NR-50510; MIC90, broth microdilution, MHB + 50 mg L^−1 calcium, 35 °C, 22 h, A600, triplicate.
Another series concerns E. faecalis (S613). Particulars: DapS, BEI HM-334; MIC90, broth microdilution, MHB + 50 mg L^−1 calcium, 35 °C, 22 h, A600, triplicate.
A further series deals with E. faecalis (R712). Particulars: DapR, BEI HM-335; MIC90, broth microdilution, MHB + 50 mg L^−1 calcium, 35 °C, 22 h, A600, triplicate.
Series [7] concerns S. aureus (SAUSA300_1713 NE573). Particulars: DapR, strain JE2 transposon mutant NE573, BEI NR-47116; MIC90, broth microdilution, MHB + 50 mg L^−1 calcium, 35 °C, 22 h, A600, triplicate.
Series [8] concerns S. aureus (SAUSA300_1715 NE1656). To be noted: DapR, strain JE2 transposon mutant NE1656, BEI NR-48198; MIC90, broth microdilution, MHB + 50 mg L^−1 calcium, 35 °C, 22 h, A600, triplicate.

Numbered stars: 1 amine (or outer) side, 2 acyl side, 3 side chain; on linkers, the order of the positions; unused ones are H or OH. Bridge positions count the residues as written; N and C are the ends. Square brackets hold non-standard residues; d marks the D form. Peptide text beside a SMILES is read from it. * marks the point of attachment. X5 = C=C(C)/C=C/C(C)c1[nH]c2ccccc2c1C[C@H](N[*:1])C(=O)[*:2]; X3 = C=C/C=C/Cc1[nH]c2ccccc2c1C[C@H](N[*:1])C(=O)[*:2]; Glu(3R-Me) = C[C@H](CC(=O)O)[C@H](N)C(=O)O; Kyn = Nc1ccccc1C(=O)C[C@H](N)C(=O)O; Decanoyl = CCCCCCCCCC(=O)*; Orn = NCCC[C@H](N)C(=O)O Bounds are passed on as bounds.

In general, MIC refers to the lowest concentration that inhibits growth of the organism. Take `C=C/C=C/Cc1[nH]c2ccccc2c1C[C@H](NC(=O)CCCCCCCCC)C(=O)N[C@H](CC(N)=O)C(=O)N[C@@H](CC(=O)O)C(=O)N[C@@H]1C(=O)NCC(=O)N[C@@H](CCCN)C(=O)N[C@@H](CC(=O)O)C(=O)N[C@H](C)C(=O)N[C@@H](CC(=O)O)C(=O)NCC(=O)N[C@H](CO)C(=O)N[C@@H]([C@H](C)CC(=O)O)C(=O)N[C@@H](CC(=O)c2ccccc2N)C(=O)O[C@@H]1C` [compound 45, C2-15-Dap] (Decanoyl-[X3][dN]DTG[Orn]D[dA]DG[dS][Glu(3R-Me)][Kyn]; ester 4-C): the “stability of the purified product (RP-HPLC chromatogram)” value in series [1] is listed as “significant degradation”. For the same compound, the MIC is 16.9 µg/mL with S. aureus (ATCC 25923); >33.7 µg/mL in series [2]; 16.9 µg/mL in [3]; 33.7 µg/mL in [4]; 33.7 µg/mL with S. aureus (hVISA, SR220); 16.9 µg/mL in series [5]. For the same compound, the MIC was >33.7 µg/mL in series [6]; >8.4 µg/mL in the series with E. faecalis (S613); >8.4 µg/mL in the series on E. faecalis (R712); >8.4 µg/mL in series [7]; >8.4 µg/mL in series [8].

On to `C=C(C)/C=C/C(C)c1[nH]c2ccccc2c1C[C@H](NC(=O)CCCCCCCCC)C(=O)N[C@H](CC(N)=O)C(=O)N[C@@H](CC(=O)O)C(=O)N[C@@H]1C(=O)NCC(=O)N[C@@H](CCCN)C(=O)N[C@@H](CC(=O)O)C(=O)N[C@H](C)C(=O)N[C@@H](CC(=O)O)C(=O)NCC(=O)N[C@H](CO)C(=O)N[C@@H]([C@H](C)CC(=O)O)C(=O)N[C@@H](CC(=O)c2ccccc2N)C(=O)O[C@@H]1C` (stereo partly drawn) [compound 47, C2R-18-Dap] (Decanoyl-[X5][dN]DTG[Orn]D[dA]DG[dS][Glu(3R-Me)][Kyn]; ester 4-C), for which the MIC with S. aureus (ATCC 25923) is >34.3 µg/mL; in [2] it was >34.3 µg/mL; in series [3], 34.3 µg/mL; in [4], 34.3 µg/mL; in the series on S. aureus (hVISA, SR220), >34.3 µg/mL; in [5], 34.3 µg/mL. Also, the MIC (with E. faecalis (S613); in the series on E. faecalis (R712); in series [7]; in [8]) was >34.3 µg/mL each time.
